Data: publication PMC6820543, “Pig liver esterases PLE1 and PLE6: heterologous expression, hydrolysis of common antibiotics and pharmacological consequences” (Scientific Reports, 2019)

Tests used:
[1] = tested on: T1, PLE6 (pig liver esterase 6); assay: LC-MS/MS product quantification, Lineweaver-Burk; type: biochemical, Sus scrofa; details: Tris-HCl 50 mM pH 7.4, 37 °C, 12.5-800 µM substrate
T1 construct: recombinant from pET-15b in E. coli Origami (DE3) with chaperone pGro7, His-tag column; cDNA 1698 bp, 566 residues with 18-residue signal peptide, about 60 kDa

[2] = substrate: CC1(C)S[C@@H]2[C@H](NC(=O)[C@H](N)c3ccccc3)C(=O)N2[C@H]1C(=O)O; assay: LC-MS/MS product quantification, Lineweaver-Burk; type: biochemical, Sus scrofa; details: Tris-HCl 50 mM pH 7.4, 37 °C, 12.5-800 µM substrate, beta-lactam amide hydrolysis to aminobenzyl-penicilloic acid
purified protein = substrate: CC1(C)S[C@@H]2[C@H](NC(=O)[C@H](N)c3ccc(O)cc3)C(=O)N2[C@H]1C(=O)O; assay: purified protein; details: Tris-HCl 50 mM pH 7.4, 37 °C, 12.5-800 µM substrate, beta-lactam amide hydrolysis to amoxicilloic acid

CC1(C)S[C@@H]2[C@H](NC(=O)[C@H](N)c3ccc(O)cc3)C(=O)N2[C@H]1C(=O)O [amoxicillin]
Km ([1]; beta-lactam amide hydrolysis to amoxicilloic acid): 36.7 µM

CC1(C)S[C@@H]2[C@H](NC(=O)[C@H](N)c3ccccc3)C(=O)N2[C@H]1C(=O)O [ampicillin]
Km ([1]; beta-lactam amide hydrolysis to aminobenzyl-penicilloic acid): 64.2 µM

B1: PLE1 (pig liver esterase 1) (Sus scrofa) (protein)
chain: GQPASPPVVDTAQGRVLGKYVSLEGLAQPVAVFLGVPFAKPPLGSLRFAPPQPAEPWSFVKNTTSYPPMCCQDPVVEQMTSDLFTNGKERLTLEFSEDCLYLNIYTPADLTKRGRLPVMVWIHGGGLVLGGAPMYDGVVLAAHENVVVVAIQYRLGIWGFFSTGDEHSRGNWGHLDQVAALHWVQENIANFGGDPGSVTIFGESAGGESVSVLVLSPLAKNLFHRAISESGVALTVALVRKDMKAAAKQIAVLAGCKTTTSAVFVHCLRQKSEDELLDLTLKMKFLTLDFHGDQRESHPFLPTVVDGVLLPKMPEEILAEKDFNTVPYIVGINKQEFGWLLPTMMGFPLSEGKLDQKTATSLLWKSYPIANIPEELTPVATDKYLGGTDDPVKKKDLFLDLMGDVMFGVPSVTVARQHRDAGAPTYMYEFQYRPSFSSDKKPKTVIGDHGDEIFSVFGFPLLKGDAPEEEVSLSKMVMKFWANFARSGNPNGEGLPHWPMYDQEEGYLQIGVNTQAAKRLKGEEVAFWNDLLSKEAAKKPPKIKHAEL
notes: recombinant from pET-15b in E. coli Origami (DE3) with chaperone pGro7, His-tag column; cDNA 1698 bp, 566 residues with 18-residue signal peptide, about 60 kDa
Km [2]: 89.20 µM
Km (purified protein): 62.04 µM
